From article PMC6364417, “Kinase inhibitor library screening identifies synergistic drug combinations effective in sensitive and resistant melanoma cells” (Journal of Experimental & Clinical Cancer Research : CR, 2019)

Legend:
Test in all cases: Kinase inhibitor library screening, PrestoBlue cell viability, 1 or 10 μM, 72 h
501Mel cells (parental) = conditions: 72 h
Method: (§1) After 72 h of treatment, cell viability was assessed using the PrestoBlue Cell Viability Reagent (ThermoFisher Scientific). Measurements were performed with the CLARIOstar Monochromator microplate reader (BMG Labtech).
(§2) Kinase inhibitor library screening. […] Each cell line was treated in its sensitive form (parental), and also as 2 resistant derivatives, which were made resistant to either Vemurafenib (XP) or Dabrafenib (GP). Drugs were added at 2 different concentrations, 1 and 10 μM, for 72 h and cell viability was assessed using the PrestoBlue Cell Viability assay. Results are depicted as % viability compared to untreated cells. Each cell line was analyzed at least in duplicate. […] (XLSX 95 kb)

IGR37 cells (parental) = system: IGR37 cells (parental)
Method: as §1, §2

[1] = system: A375-XP cells (Vemurafenib-resistant)
Method: as §1, §2

A375 cells (parental) = system: A375 cells (parental)
Method: as §1, §2

[2] = system: IGR37-GP cells (Dabrafenib-resistant)
Method: as §1, §2

[3] = system: 501Mel-GP cells (Dabrafenib-resistant); conditions: 72 h
Method: as §1, §2

[4] = system: 501Mel-XP cells (Vemurafenib-resistant); conditions: 72 h
Method: as §1, §2

[5] = system: IGR37-XP cells (Vemurafenib-resistant)
Method: as §1, §2

[6] = system: A375-GP cells (Dabrafenib-resistant)
Method: as §1, §2

O=C1NC(=O)/C(=C\c2ccc3nccnc3c2)S1 [AS-605240]
Cell viability in kinase inhibitor library screening, 501Mel Parental, 1μΜ (501Mel cells (parental); 501Mel Parental, 1μΜ, in %): 104.7
Cell viability in kinase inhibitor library screening, 501Mel Parental, 10μΜ (501Mel cells (parental); 501Mel Parental, 10μΜ, in %): 92.3
Cell viability in kinase inhibitor library screening, IGR37 Parental, 1μΜ (IGR37 cells (parental); IGR37 Parental, 1μΜ, 72 h, in %): 99.2
Cell viability in kinase inhibitor library screening, IGR37 Parental, 10μΜ (IGR37 cells (parental); IGR37 Parental, 10μΜ, 72 h, in %): 94.0
Cell viability in kinase inhibitor library screening, A375 XP, 10μΜ ([1]; A375 XP, 10μΜ, 72 h): 81.1
Cell viability in kinase inhibitor library screening, A375 Parental, 10μΜ (A375 cells (parental); A375 Parental, 10μΜ, 72 h): 76.5
Cell viability in kinase inhibitor library screening, A375 Parental, 1μΜ (A375 cells (parental); A375 Parental, 1μΜ, 72 h): 99.1
Cell viability in kinase inhibitor library screening, IGR37 GP, 10μΜ ([2]; IGR37 GP, 10μΜ, 72 h): 70.4%
Cell viability in kinase inhibitor library screening, IGR37 GP, 1μΜ ([2]; IGR37 GP, 1μΜ, 72 h, in %): 91.2
Cell viability in kinase inhibitor library screening, 501Mel GP, 1μΜ ([3]; 501Mel GP, 1μΜ, in %): 107.4
Cell viability in kinase inhibitor library screening, 501Mel GP, 10μΜ ([3]; 501Mel GP, 10μΜ, in %): 73.8
Cell viability in kinase inhibitor library screening, 501Mel XP, 1μΜ ([4]; 501Mel XP, 1μΜ, in %): 98.5
Cell viability in kinase inhibitor library screening, 501Mel XP, 10μΜ ([4]; 501Mel XP, 10μΜ, in %): 72.2
Cell viability in kinase inhibitor library screening, IGR37 XP, 1μΜ ([5]; IGR37 XP, 1μΜ, 72 h, in %): 98.2
Cell viability in kinase inhibitor library screening, A375 GP, 1μΜ ([6]; A375 GP, 1μΜ, 72 h): 97.7
Cell viability in kinase inhibitor library screening, A375 GP, 10μΜ ([6]; A375 GP, 10μΜ, 72 h): 71.1

C=CC(=O)Nc1ccc2ncnc(Nc3ccc(OCc4cccc(F)c4)c(Cl)c3)c2c1 [AST-1306]
viability at 1 µM (501Mel cells (parental); Homo sapiens, read-out: cell viability, 501Mel Parental, 1μΜ): 94.1%
viability at 10 µM (501Mel cells (parental); Homo sapiens, read-out: cell viability, 501Mel Parental, 10μΜ): 3%
viability at 1 µM (IGR37 cells (parental); Homo sapiens, IGR-37, 72 h, read-out: cell viability, IGR37 Parental, 1μΜ): 99.8%
viability at 10 µM (IGR37 cells (parental); Homo sapiens, IGR-37, 72 h, read-out: cell viability, IGR37 Parental, 10μΜ): 1.8%
viability at 1 µM ([1]; Homo sapiens, A-375, 72 h, read-out: cell viability, A375 XP, 1μΜ): 90.9%
viability at 10 µM ([1]; Homo sapiens, A-375, 72 h, read-out: cell viability, A375 XP, 10μΜ): 0.8%
viability at 1 µM (A375 cells (parental); Homo sapiens, A-375, 72 h, read-out: cell viability, A375 Parental, 1μΜ): 95%
viability at 10 µM (A375 cells (parental); Homo sapiens, A-375, 72 h, read-out: cell viability, A375 Parental, 10μΜ): 2.9%
viability at 1 µM ([2]; Homo sapiens, IGR-37, 72 h, read-out: cell viability, IGR37 GP, 1μΜ): 87.4%
viability at 10 µM ([2]; Homo sapiens, IGR-37, 72 h, read-out: cell viability, IGR37 GP, 10μΜ): 2.2%
viability at 1 µM ([3]; Homo sapiens, read-out: cell viability, 501Mel GP, 1μΜ): 103%
viability at 10 µM ([3]; Homo sapiens, read-out: cell viability, 501Mel GP, 10μΜ): 2.3%
viability at 1 µM ([4]; Homo sapiens, read-out: cell viability, 501Mel XP, 1μΜ): 89.2%
viability at 10 µM ([4]; Homo sapiens, read-out: cell viability, 501Mel XP, 10μΜ): -0.162%
viability at 1 µM ([5]; Homo sapiens, IGR-37, 72 h, read-out: cell viability, IGR37 XP, 1μΜ): 72.8%
viability at 10 µM ([5]; Homo sapiens, IGR-37, 72 h, read-out: cell viability, IGR37 XP, 10μΜ): 1.1%
viability at 1 µM ([6]; Homo sapiens, A-375, 72 h, read-out: cell viability, A375 GP, 1μΜ): 85.4%
viability at 10 µM ([6]; Homo sapiens, A-375, 72 h, read-out: cell viability, A375 GP, 10μΜ): 0.6%

Clc1ccc(C2(c3ccc(-c4cn[nH]c4)cc3)CCNCC2)cc1 [AT7867]
cell viability (kinase inhibitor library screening) (501Mel cells (parental); 501Mel Parental, 1μΜ): 93.0%
cell viability (kinase inhibitor library screening) (501Mel cells (parental); 501Mel Parental, 10μΜ): 5.4%
cell viability (kinase inhibitor library screening) (IGR37 cells (parental); IGR37 Parental, 1μΜ, 72 h): 98.1%
cell viability (kinase inhibitor library screening) (IGR37 cells (parental); IGR37 Parental, 10μΜ, 72 h): 84.9%
cell viability (kinase inhibitor library screening) ([1]; A375 XP, 1μΜ, 72 h): 99.3%
cell viability (kinase inhibitor library screening) ([1]; A375 XP, 10μΜ, 72 h): 63.1%
cell viability (kinase inhibitor library screening) (A375 cells (parental); A375 Parental, 10μΜ, 72 h): 58.0%
cell viability (kinase inhibitor library screening) (A375 cells (parental); A375 Parental, 1μΜ, 72 h): 97.2%
cell viability (kinase inhibitor library screening) ([2]; IGR37 GP, 1μΜ, 72 h): 89.7%
cell viability (kinase inhibitor library screening) ([2]; IGR37 GP, 10μΜ, 72 h): 78.9%
cell viability (kinase inhibitor library screening) ([3]; 501Mel GP, 1μΜ): 93.8%
cell viability (kinase inhibitor library screening) ([3]; 501Mel GP, 10μΜ): 20.5%
cell viability (kinase inhibitor library screening) ([4]; 501Mel XP, 1μΜ): 81.2%
cell viability (kinase inhibitor library screening) ([4]; 501Mel XP, 10μΜ): 0.172%
cell viability (kinase inhibitor library screening) ([5]; IGR37 XP, 1μΜ, 72 h): 105.4%
cell viability (kinase inhibitor library screening) ([5]; IGR37 XP, 10μΜ, 72 h): 42.3%
cell viability (kinase inhibitor library screening) ([6]; A375 GP, 1μΜ, 72 h): 82.8%
cell viability (kinase inhibitor library screening) ([6]; A375 GP, 10μΜ, 72 h): 43.6%

O=C(Nc1c[nH]nc1-c1nc2ccc(CN3CCOCC3)cc2[nH]1)NC1CC1 [AT9283]
cell viability (kinase inhibitor library screening) (501Mel cells (parental); 501Mel Parental, 1μΜ): 67.5%
cell viability (kinase inhibitor library screening) (501Mel cells (parental); 501Mel Parental, 10μΜ): 2.0%
cell viability (kinase inhibitor library screening) (IGR37 cells (parental); IGR37 Parental, 1μΜ, 72 h): 90.9%
cell viability (kinase inhibitor library screening) (IGR37 cells (parental); IGR37 Parental, 10μΜ, 72 h): 1.1%
cell viability (kinase inhibitor library screening) ([1]; A375 XP, 1μΜ, 72 h): 38.4%
cell viability (kinase inhibitor library screening) ([1]; A375 XP, 10μΜ, 72 h): 9.8%
cell viability (kinase inhibitor library screening) (A375 cells (parental); A375 Parental, 10μΜ, 72 h): 6.2%
cell viability (kinase inhibitor library screening) (A375 cells (parental); A375 Parental, 1μΜ, 72 h): 27.1%
cell viability (kinase inhibitor library screening) ([2]; IGR37 GP, 1μΜ, 72 h): 97.8%
cell viability (kinase inhibitor library screening) ([2]; IGR37 GP, 10μΜ, 72 h): 3.7%
cell viability (kinase inhibitor library screening) ([3]; 501Mel GP, 1μΜ): 72.2%
cell viability (kinase inhibitor library screening) ([3]; 501Mel GP, 10μΜ): 0.469%
cell viability (kinase inhibitor library screening) ([4]; 501Mel XP, 1μΜ): 63.4%
cell viability (kinase inhibitor library screening) ([4]; 501Mel XP, 10μΜ): 0.184%
cell viability (kinase inhibitor library screening) ([5]; IGR37 XP, 1μΜ, 72 h): 82.7%
cell viability (kinase inhibitor library screening) ([5]; IGR37 XP, 10μΜ, 72 h): 1.5%
cell viability (kinase inhibitor library screening) ([6]; A375 GP, 1μΜ, 72 h): 32.2%
cell viability (kinase inhibitor library screening) ([6]; A375 GP, 10μΜ, 72 h): 3.3%
